Test results reported in ChEMBL document CHEMBL3272349, “Quantitative structure-activity relationships of antimalarial and dihydrofolate reductase inhibition by quinazolines and 5-substituted benzyl-2,4-diaminopyrimidines” (J Med Chem, 1977).

Legend:
Plasmodium berghei = assay: Antimalarial activity against Plasmodium berghei infected mouse assessed as suppression of parasitemia administered through diet for 6 days; assay type: functional
[1] = target: T1, Dihydrofolate reductase (Enterococcus faecium) (UniProt P00380)
T1 sequence (whole entry): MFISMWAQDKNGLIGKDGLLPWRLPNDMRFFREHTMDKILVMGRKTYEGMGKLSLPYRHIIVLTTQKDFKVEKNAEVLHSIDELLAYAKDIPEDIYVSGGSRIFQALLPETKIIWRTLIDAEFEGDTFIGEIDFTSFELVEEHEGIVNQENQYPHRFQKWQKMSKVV

| SMILES | log(1/I50) [1] | log(1/SD90) (Plasmodium berghei) |
| --- | --- | --- |
| Cc1c(NCc2ccc(Cl)c(Cl)c2)ccc2nc(N)nc(N)c12 | – | 4.83 |
| Nc1nc(N)c2cc(NCCc3ccc(Cl)cc3)ccc2n1 | – | 4.24 |
| Nc1nc(S)nc2ccc(Sc3ccc4ccccc4c3)cc12 | 4.69 | – |
| Nc1nc(N)c2cc(NCc3cccs3)ccc2n1 | – | 3.82 |
| CCCN(Cc1ccc(Cl)c(Cl)c1)c1ccc2nc(N)nc(N)c2c1 | – | 6.1 |
| Nc1nc(O)c2cc(S(=O)(=O)c3ccc4ccccc4c3)ccc2n1 | 6.3 | – |
| CCN(Cc1ccc(Cl)c(Cl)c1)c1ccc2nc(N)nc(N)c2c1 | – | 6 |
| CCCN(Cc1ccc(Cl)c(Cl)c1)c1ccc2nc(N)nc(N)c2c1C | – | 5.36 |
| CCCCN(Cc1ccc(Cl)c(Cl)c1)c1ccc2nc(N)nc(N)c2c1 | – | 5.06 |
| Nc1nc(N)c2cc(Sc3ccc(Cl)c(Cl)c3)ccc2n1 | 8.24 | – |
| Nc1nc(N)c2cc(NCc3ccccc3[N+](=O)[O-])ccc2n1 | – | 3.26 |
| O=c1[nH]c(=S)c2cc(Sc3ccc4ccccc4c3)ccc2[nH]1 | 4.24 | – |
| Cc1c(CNc2ccc(C(=O)O)cc2)ccc2nc(N)nc(N)c12 | 7.96 | – |
| CCOC(=O)c1ccc(NCc2ccc3nc(N)nc(N)c3c2Cl)cc1 | 8.64 | – |
| Nc1nc(N)c2cc(N(Cc3ccc(Cl)c(Cl)c3)N=O)cnc2n1 | – | 4.48 |
| Nc1nc(N)c2cc(S(=O)(=O)c3ccc4ccccc4c3)ccc2n1 | 8.4 | – |
| CCOC(=O)c1ccc(CNc2ccc3nc(N)nc(N)c3c2C)cc1 | 8.85 | – |
| Nc1nc(N)c2cc(NCc3ccc(Cl)s3)ccc2n1 | – | 4.49 |
| COc1cccc(CNc2ccc3nc(N)nc(N)c3c2)c1 | – | 4.15 |
| CN(C)c1nc(N(C)C)c2cc(NCc3ccc(Cl)c(Cl)c3)ccc2n1 | – | 4.21 |
| CCN(Cc1cccc2ccccc12)c1ccc2nc(N)nc(N)c2c1 | – | 5.97 |
| Nc1nc(N)c2cc(Sc3cccc(C(F)(F)F)c3)ccc2n1 | 9.15 | – |
| CN(Cc1ccccc1)c1ccc2nc(N)nc(N)c2c1 | – | 6.15 |
| Nc1nc(N)c2cc(CNc3ccc(C(=O)O)cc3)ccc2n1 | 8.8 | – |
| Nc1nc(N)c2c([S+]([O-])c3ccc(Cl)c(Cl)c3)cccc2n1 (configuration not stated) | 4.65 | – |
| CCCCCCCCN(Cc1ccc(Cl)cc1)c1ccc2nc(N)nc(N)c2c1 | – | 4.08 |
| CC(C)N(Cc1ccc(Cl)cc1)c1ccc2nc(N)nc(N)c2c1 | – | 6.76 |
| CCOC(=O)c1ccc(CNc2ccc3nc(N)nc(N)c3c2Cl)cc1 | 8.2 | – |

| SMILES | log(1/I50) [1] | log(1/SD90) (Plasmodium berghei) |
| --- | --- | --- |
| CCN(CC)c1nc(N(CC)CC)c2cc(NCc3ccc(Cl)c(Cl)c3)ccc2n1 | – | 3.31 |
| Nc1nc(N)c2cc(S(=O)(=O)c3ccc(Cl)c(Cl)c3)ccc2n1 | 9.15 | – |
| CCN(Cc1ccc(Cl)c(Cl)c1)c1ccc2nc(N)nc(N)c2c1C | – | 5.2 |
| Nc1nc(N)c2c(CSc3ccc4ccccc4c3)cccc2n1 | 7.55 | – |
| Nc1nc(N)c2c(CCc3ccc4ccccc4c3)cccc2n1 | 8 | – |
| CCN(Cc1ccc(Cl)cc1)c1ccc2nc(N)nc(N)c2c1 | – | 6.4 |
| Nc1nc(N)c2cc(NCc3ccccc3N)ccc2n1 | – | 3.07 |
| CC(c1ccc(Cl)c(Cl)c1)N(C)c1ccc2nc(N)nc(N)c2c1 (configuration not stated) | – | 5.6 |
| Nc1nc(S)c2cc(S(=O)(=O)c3ccc4ccccc4c3)ccc2n1 | 5.17 | – |
| Cc1c(NCc2ccccc2)ccc2nc(N)nc(N)c12 | – | 5.33 |
| Nc1nc(N)c2c(/C=C\c3ccc4ccccc4c3)cccc2n1 | 7.43 | – |
| CCCN(Cc1ccc(Cl)cc1)c1ccc2nc(N)nc(N)c2c1 | – | 6.3 |
| CC(Nc1ccc2nc(N)nc(N)c2c1)c1ccc(Cl)c(Cl)c1 (configuration not stated) | – | 4.6 |
| Sc1nc(S)c2cc(Sc3ccc4ccccc4c3)ccc2n1 | 3.65 | – |
| Nc1nc(N)c2c(CSc3ccc(Cl)cc3)cccc2n1 | 7.24 | – |
| CN(Cc1ccc(Cl)c(Cl)c1)c1ccc2nc(N)nc(N)c2c1 | – | 6.34 |
| CCCCNc1nc(NCCCC)c2cc(NCc3ccc(Cl)c(Cl)c3)ccc2n1 | – | 3.47 |
| Nc1nc(N)c2c(Cl)c(NCc3ccc(Cl)c(Cl)c3)ccc2n1 | – | 5.72 |
| Nc1nc(N)c2c([S+]([O-])c3ccc4ccccc4c3)cccc2n1 (configuration not stated) | 4.36 | – |
| Nc1ncnc2ccc(S(=O)(=O)c3ccc4ccccc4c3)cc12 | 3.51 | – |
| Nc1nc(N)c2c(S(=O)(=O)c3ccc4ccccc4c3)cccc2n1 | 4.05 | – |
| Nc1nc(N)c2c(Cl)c(CNc3ccc(C(=O)O)cc3)ccc2n1 | 8.27 | – |
| Cc1c(CNc2ccc(C(=O)NC(CC(=O)O)C(=O)O)cc2)ccc2nc(N)nc(N)c12 (configuration not stated) | 8.6 | – |
| Nc1nc(O)c2cc(CNc3ccc(C(=O)O)cc3)ccc2n1 | 5.74 | – |
| CCOC(=O)c1ccc(CNc2ccc3nc(N)nc(O)c3c2C)cc1 | 4.52 | – |
| CCOC(=O)c1ccc(CNc2ccc3nc(N)nc(O)c3c2Cl)cc1 | 6.09 | – |
| Nc1nc(N)c2c(Sc3ccc(Cl)c(Cl)c3)cccc2n1 | 6.54 | – |

Second part, led by results:

| log(1/I50) [1] | SMILES | log(1/SD90) (Plasmodium berghei) |
| --- | --- | --- |
| 3.85 | Oc1nc(S)nc2ccc(Sc3ccc4ccccc4c3)cc12 | – |
| 8.7 | Nc1nc(N)c2cc([S+]([O-])c3ccc4ccccc4c3)ccc2n1 (configuration not stated) | – |
| 5.28 | Nc1nc(O)c2cc([S+]([O-])c3ccc4ccccc4c3)ccc2n1 (configuration not stated) | – |
| 7.25 | Nc1nc(N)c2c(Sc3ccc4ccccc4c3)cccc2n1 | – |
| 6.74 | Nc1nc(O)c2cc(Sc3ccc4ccccc4c3)ccc2n1 | – |
| 5.85 | Nc1nc(O)c2c(S(=O)(=O)c3ccc4ccccc4c3)cccc2n1 | – |
| 4.07 | Nc1ncnc2ccc(Sc3ccc4ccccc4c3)cc12 | – |
| 4.55 | CCOC(=O)c1ccc(CNc2ccc3nc(N)nc(O)c3c2)cc1 | – |
| 5.3 | Nc1nc(O)c2cc(S(=O)(=O)c3ccc(Cl)c(Cl)c3)ccc2n1 | – |
| 7.52 | CCCCOC(=O)c1ccc(NCc2ccc3nc(N)nc(N)c3c2)cc1 | – |
| 8.15 | CCCCOC(=O)c1ccc(NCc2ccc3nc(N)nc(N)c3c2C)cc1 | – |
| 4.34 | Nc1nc(O)nc2ccc(Sc3ccc4ccccc4c3)cc12 | – |
| 5.85 | Nc1nc(N)c2c(S(=O)(=O)c3ccc(Cl)c(Cl)c3)cccc2n1 | – |
| 4.68 | Nc1nc(O)c2c(Sc3ccc4ccccc4c3)cccc2n1 | – |
| 7.68 | CCOC(=O)c1ccc(NCc2ccc3nc(N)nc(N)c3c2)cc1 | – |
| 5.92 | Nc1nc(O)c2cc(Sc3ccc(Cl)c(Cl)c3)ccc2n1 | – |
| 8.29 | CCOC(=O)c1ccc(NCc2ccc3nc(N)nc(N)c3c2C)cc1 | – |
| 4.58 | Nc1ncnc2ccc([S+]([O-])c3ccc4ccccc4c3)cc12 (configuration not stated) | – |
| 7.07 | CCOC(=O)c1ccc(NCc2ccc3nc(N)nc(O)c3c2)cc1 | – |
| 6.1 | Nc1nc(S)c2cc(Sc3ccc4ccccc4c3)ccc2n1 | – |
| 7.34 | CCOC(=O)c1ccc(CNc2ccc3nc(N)nc(N)c3c2)cc1 | – |
| 9 | Nc1nc(N)c2cc(CN(C=O)c3ccc(C(=O)NC(CCC(=O)O)C(=O)O)cc3)ccc2n1 (configuration not stated) | – |
| 7.68 | CCCCOC(=O)c1ccc(NCc2ccc3nc(N)nc(N)c3c2Cl)cc1 | – |
| 6.52 | Nc1nc(O)c2cc(CN(C=O)c3ccc(C(=O)NC(CCC(=O)O)C(=O)O)cc3)ccc2n1 (configuration not stated) | – |
| 7.7 | CCOC(=O)CCC(NC(=O)c1ccc(NCc2ccc3nc(N)nc(N)c3c2)cc1)C(=O)OCC (configuration not stated) | – |
| 7.12 | Nc1nc(N)c2c(/C=C/c3ccc4ccccc4c3)cccc2n1 | – |
| 4.32 | O=c1[nH]c(=O)c2cc(Sc3ccc4ccccc4c3)ccc2[nH]1 | – |
